Patent publication US6376670B1, “Quinoline-indole antimicrobial agents, uses and compositions related thereto” (Sepracor Inc., priority 1997, dated 2002)
Where two headings read alike, the source gives them in different places. One block for each molecule: values may come before it.

What was measured:
Test in all cases: Determination of MIC values (BHI broth, 96 well microtiter plate)
Format in all cases: cell-based
Streptococcus pneumoniae = details: Streptococcus pneumoniae, BHI broth, read-out: MIC S. pneu
In short: (§1)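 Compounds were serially diluted 1:2 in DMSO and added 1:100 to BHI broth to final 25–0.39 µg/mL plus a no-compound control. Wells received an inoculum of 10^5 to 10^6 cells/mL from a 0.5 McFarland culture and were incubated overnight (about 16 hours) at 37° C under 7-10% CO2. MIC is the lowest concentration without visible growth.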

[1] = tested on: vancomycin-resistant Enterococcus spp. (VRE); details: Enterococcus, VRE, BHI broth, read-out: MIC VREF
In short: as §1

[2] = tested on: methicillin-resistant Staphylococcus aureus (MRSA); details: Staphylococcus aureus, MRSA, BHI broth, read-out: MIC MRSA
In short: as §1

[3] = 37° C., overnight (about 16 hours)
[4] = 16 h, 37° C., overnight (about 16 hours)

MIC (Streptococcus pneumoniae; S. pneu, overnight 37° C.): < 7 µg/mL | MIC ([1]; VREF, overnight 37° C.): < 7 µg/mL | MIC ([2]; overnight 37° C.): < 7 µg/mL
Compound: Brc1ccc2c(CNCc3ccccc3)cc(-c3c[nH]c4ccc(Br)cc34)nc2c1 [Example 373]

MIC (Streptococcus pneumoniae; S. pneu, overnight 37° C.): < 7 µg/mL | MIC ([1]; VREF, overnight 37° C.): > 25 µg/mL | MIC ([2]; overnight 37° C.): < 7 µg/mL
Compound: Cc1[nH]c2ccccc2c1-c1cc(Cl)c2ccccc2n1 [Example 352]

MIC (Streptococcus pneumoniae; 37° C., about 16 hours): < 7 µg/mL | MIC ([1]; 16 h, 37° C., about 16 hours): < 25 µg/mL | MIC ([2]; 16 h, 37° C., about 16 hours): < 7 µg/mL
Compound: OCc1cc(-c2c[nH]c3ccc(Br)cc23)nc2c(F)cccc12 [Example 444]

MIC (Streptococcus pneumoniae; 37° C., about 16 hours): < 25 µg/mL | MIC ([1]; 16 h, 37° C., about 16 hours): > 25 µg/mL | MIC ([2]; 16 h, 37° C., about 16 hours): < 25 µg/mL
Compound: Cc1[nH]c2ccccc2c1-c1ccc2cccc(C)c2n1 [Example 472]

MIC (Streptococcus pneumoniae; [3]): < 7 µg/mL | MIC [1, 4]: < 5 µg/mL | MIC [2, 4]: < 7 µg/mL
Compound: Clc1ccc2nc(-c3c[nH]c4ccccc34)ccc2c1 [Example 164]

MIC (Streptococcus pneumoniae; [3]): > 25 µg/mL | MIC [1, 4]: > 25 µg/mL | MIC [2, 4]: < 25 µg/mL
Compound: c1ccc2nc(-c3c[nH]c4ccccc34)ccc2c1 [Example 163]

MIC (Streptococcus pneumoniae; 37° C., about 16 hours): < 7 µg/mL | MIC ([1]; 16 h, 37° C., about 16 hours): < 7 µg/mL | MIC ([2]; 16 h, 37° C., about 16 hours): < 7 µg/mL
Compound: OCc1cc(-c2c[nH]c3ccc(Br)cc23)nc2c(Cl)cccc12 [Example 457]

MIC (Streptococcus pneumoniae; 37° C., about 16 hours): < 25 µg/mL | MIC ([1]; 16 h, 37° C., about 16 hours): > 25 µg/mL | MIC ([2]; 16 h, 37° C., about 16 hours): < 25 µg/mL
Compound: COc1ccc2[nH]c(C)c(-c3ccc4cccc(C)c4n3)c2c1 [Example 424]

MIC (Streptococcus pneumoniae; S. pneu, overnight 37° C.): < 7 µg/mL | MIC ([1]; VREF, overnight 37° C.): > 25 µg/mL | MIC ([2]; overnight 37° C.): < 7 µg/mL
Compound: Clc1cc(-c2c[nH]c3c(Cl)cccc23)nc2ccccc12 [Example 344]

MIC (Streptococcus pneumoniae; S. pneu, overnight 37° C.): < 7 µg/mL | MIC ([1]; VREF, overnight 37° C.): < 7 µg/mL | MIC ([2]; overnight 37° C.): < 7 µg/mL
Compound: Fc1ccc2c(-c3cc(Cl)c4ccccc4n3)c[nH]c2c1 [Example 340]

MIC (Streptococcus pneumoniae; S. pneu, overnight 37° C.): < 7 µg/mL | MIC ([1]; VREF, overnight 37° C.): > 25 µg/mL | MIC ([2]; overnight 37° C.): < 7 µg/mL
Compound: Clc1ccc2c(-c3cc(Cl)c4ccccc4n3)c[nH]c2c1 [Example 343]

MIC (Streptococcus pneumoniae; 37° C., about 16 hours): > 25 µg/mL | MIC ([1]; 16 h, 37° C., about 16 hours): > 25 µg/mL | MIC ([2]; 16 h, 37° C., about 16 hours): > 25 µg/mL
Compound: Cc1cccc2ccc(-c3c[nH]c4ccc(C#N)cc34)nc12 [Example 409]

MIC (Streptococcus pneumoniae; [3]): < 7 µg/mL | MIC [1, 4]: < 25 µg/mL | MIC [2, 4]: < 7 µg/mL
Compound: Fc1ccc2[nH]cc(-c3ccc4ccccc4n3)c2c1 [Example 181]

MIC (Streptococcus pneumoniae; 37° C., about 16 hours): < 7 µg/mL | MIC ([1]; 16 h, 37° C., about 16 hours): < 25 µg/mL | MIC ([2]; 16 h, 37° C., about 16 hours): < 7 µg/mL
Compound: OCc1cc(-c2c[nH]c3ccc(Br)cc23)nc2ccccc12 [Example 442]

Second part, the molecule before the results:

Compound: O=C(O)c1cc(-c2c[nH]c3ccc(Br)cc23)nc2ccc(C#CCN3CCCC3)cc12 [Example 234]
MIC (Streptococcus pneumoniae; S. pneu, overnight 37° C.): > 25 µg/mL | MIC ([1]; VREF, overnight 37° C.): > 25 µg/mL | MIC ([2]; overnight 37° C.): > 25 µg/mL

Compound: Cn1cc(-c2cc(C(=O)NCCN)c3cc(Cl)ccc3n2)c2cc(Br)ccc21 [Example 370]
MIC (Streptococcus pneumoniae; S. pneu, overnight 37° C.): < 7 µg/mL | MIC ([1]; VREF, overnight 37° C.): < 7 µg/mL | MIC ([2]; overnight 37° C.): < 7 µg/mL

Compound: O=C(O)c1cc(-c2c[nH]c3ccc(Br)cc23)nc2cc(F)cc(Cl)c12 [Example 297]
MIC (Streptococcus pneumoniae; S. pneu, overnight 37° C.): < 25 µg/mL | MIC ([1]; VREF, overnight 37° C.): < 25 µg/mL | MIC ([2]; overnight 37° C.): < 25 µg/mL

Compound: Cc1cccc2ccc(-c3c[nH]c4cc(F)ccc34)nc12 [Example 423]
MIC (Streptococcus pneumoniae; 37° C., about 16 hours): > 25 µg/mL | MIC ([1]; 16 h, 37° C., about 16 hours): > 25 µg/mL | MIC ([2]; 16 h, 37° C., about 16 hours): > 25 µg/mL

Compound: NCc1ccc(CNC(=O)c2cc(-c3c[nH]c4ccc(Br)cc34)nc3ccc(C#CCN4CCCC4)cc23)cc1 [Example 238]
MIC (Streptococcus pneumoniae; S. pneu, overnight 37° C.): < 7 µg/mL | MIC ([1]; VREF, overnight 37° C.): < 25 µg/mL | MIC ([2]; overnight 37° C.): < 7 µg/mL

Compound: O=C(O)c1cc(-c2c[nH]c3ccc(Br)cc23)nc2cc(Cl)c(C#CCN3CCCCC3)cc12 [Example 516]
MIC (Streptococcus pneumoniae; 37° C., about 16 hours): < 7 µg/mL | MIC ([1]; 16 h, 37° C., about 16 hours): < 25 µg/mL | MIC ([2]; 16 h, 37° C., about 16 hours): < 7 µg/mL

Compound: O=C(Nc1ccc(O)cc1)c1cc(-c2c[nH]c3ccc(Br)cc23)nc2ccc(I)cc12 [Example 175]
MIC (Streptococcus pneumoniae; [3]): < 7 µg/mL | MIC [1, 4]: < 25 µg/mL | MIC [2, 4]: < 7 µg/mL

Compound: Cn1cc(-c2cc(C(=O)NCc3ccc(CN)cc3)c3cc(C#CCNCCc4ccccc4)ccc3n2)c2cc(Br)ccc21 [Example 389]
MIC (Streptococcus pneumoniae; S. pneu, overnight 37° C.): < 25 µg/mL | MIC ([1]; VREF, overnight 37° C.): < 7 µg/mL | MIC ([2]; overnight 37° C.): < 7 µg/mL

Compound: O=C(Nc1ccc(O)cc1)c1cc(-c2c[nH]c3ccc(Br)cc23)nc2ccc(C(F)(F)F)cc12 [Example 171]
MIC (Streptococcus pneumoniae; [3]): < 7 µg/mL | MIC [1, 4]: < 7 µg/mL | MIC [2, 4]: < 7 µg/mL

Compound: O=C(NCc1nc2ccccc2[nH]1)c1cc(-c2c[nH]c3ccc(Br)cc23)nc2ccc(I)cc12 [Example 173]
MIC (Streptococcus pneumoniae; [3]): < 7 µg/mL | MIC [1, 4]: > 25 µg/mL | MIC [2, 4]: < 7 µg/mL

Compound: NCc1ccc(CNC(=O)c2cc(-c3c[nH]c4ccc(Br)cc34)nc3ccc(C#CCNC4CCCCC4)cc23)cc1 [Example 236]
MIC (Streptococcus pneumoniae; S. pneu, overnight 37° C.): < 7 µg/mL | MIC ([1]; VREF, overnight 37° C.): < 7 µg/mL | MIC ([2]; overnight 37° C.): < 7 µg/mL

Compound: NCc1cccc(CNC(=O)c2cc(-c3c[nH]c4ccc(Br)cc34)nc3cc(Br)ccc23)n1 [Example 334]
MIC (Streptococcus pneumoniae; S. pneu, overnight 37° C.): < 7 µg/mL | MIC ([1]; VREF, overnight 37° C.): < 7 µg/mL | MIC ([2]; overnight 37° C.): < 7 µg/mL

Compound: CN(CC#Cc1ccc2nc(-c3cn(C)c4ccc(Br)cc34)cc(C(=O)NCc3ccc(CN)cc3)c2c1)C1CCCCC1 [Example 397]
MIC (Streptococcus pneumoniae; S. pneu, overnight 37° C.): < 7 µg/mL | MIC ([1]; VREF, overnight 37° C.): < 7 µg/mL | MIC ([2]; overnight 37° C.): < 7 µg/mL
